Measurements reported in patent EP3436445B1, “HISTONE DEMETHYLASE INHIBITORS” (Celgene Quanticel Research, Inc., priority 2016, dated 2017).

Columns and labels:
JMJD2C = target: T1, JMJD2C (Homo sapiens, UniProt Q9H3R0); assay: JMJD2C in vitro enzyme inhibition assay (TR-FRET); format: biochemical; conditions: Table 5; 0.3 nM JMJD2C, H3K9me3-biotin labeled peptide
T1 construct: purchased BPS Bioscience 50105
T1 sequence (Q9H3R0 2-372): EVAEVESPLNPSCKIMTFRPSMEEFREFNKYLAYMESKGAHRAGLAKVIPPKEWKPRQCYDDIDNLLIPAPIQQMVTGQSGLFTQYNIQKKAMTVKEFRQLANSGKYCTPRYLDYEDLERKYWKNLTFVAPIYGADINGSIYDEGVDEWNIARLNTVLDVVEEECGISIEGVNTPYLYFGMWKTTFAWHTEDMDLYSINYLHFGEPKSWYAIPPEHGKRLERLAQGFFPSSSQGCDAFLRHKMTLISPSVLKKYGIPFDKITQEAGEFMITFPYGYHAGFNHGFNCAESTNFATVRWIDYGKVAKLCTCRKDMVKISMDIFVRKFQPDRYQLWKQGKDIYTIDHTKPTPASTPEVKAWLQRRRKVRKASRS
From the text: (§1) This assay determines the ability of a test compound to inhibit Jarid1B, JMJD2C and JMJD3 demethylase activity. Baculovirus expressed Jarid1B (GenBank Accession #NM-006618, AA 2-751) was purchased from BPS Bioscience (Cat #50121) or custom made by MolecularThroughput. Baculovirus expressed JMJD2C (GenBank Accession #BC143571, AA 2-372) was purchased from BPS Bioscience (Cat#50105). Baculovirus expressed JMJD3 (GenBank Accession #NM-001080424, AA1043-end) was purchased from BPS Bioscience (Cat#50115).
The ability of test compounds to inhibit the activity of JMJD2C was determined in 384-well plate format under the following reaction conditions: 0.3 nM JMJD2C, 300 nM H3K9me3-biotin labeled peptide (Anaspec cat #64360), 2 µM alpha-ketoglutaric acid in assay buffer of 50 mM HEPES, pH7.3, 0.005% Brij35, 0.5 mM TCEP, 0.2 mg/ml BSA, 50 µM sodium L-ascorbate, and 2 µM ammonium iron(II) sulfate. Reaction product was determined quantitatively by TR-FRET after the addition of detection reagent Phycolink Streptavidin-allophycocyanin (Prozyme) and Europium-anti-di-methylated histone H3 lysine 9 (H3K9me2) antibody (PerkinElmer) in the presence of 5 mM EDTA in LANCE detection buffer (PerkinElmer) at a final concentration of 50 nM and 1 nM, respectively.
(§2) The assay reaction was initiated by the following: 2 µl of the mixture of 900 nM H3K9me3-biotin labeled peptide and 6 µM alpha-ketoglutaric acid with 2 µl of 11-point serial diluted inhibitor in 3% DMSO were added to each well of the plate, followed by the addition of 2 µl of 0.9 nM JMJD2C to initiate the reaction. The reaction mixture was incubated at room temperature for 30 minutes, and terminated by the addition of 6 µl of 5 mM EDTA in LANCE detection buffer containing 100 nM Phycolink Streptavidin-allophycocyanin and 2 nM Europium-anti-H3K9me2 antibody. Plates were read by EnVisionMultilabel Reader in TR-FRET mode (excitation at 320 nm, emission at 615 nm and 665 nm) after 1 hour incubation at room temperature. A ratio was calculated (665/615) for each well and fitted to determine inhibition constant (IC50).

Jarid1B = target: T2, Jarid1B (Homo sapiens, UniProt Q9UGL1); assay: Jarid1B in vitro enzyme inhibition assay (TR-FRET); format: biochemical; conditions: Table 5; 0.8 nM Jarid1B, H3K4me3-biotin labeled peptide; read-out: JARID1B IC5
T2 construct: purchased BPS Bioscience (or custom made by MolecularThroughput) 50121
T2 sequence (Q9UGL1 2-751): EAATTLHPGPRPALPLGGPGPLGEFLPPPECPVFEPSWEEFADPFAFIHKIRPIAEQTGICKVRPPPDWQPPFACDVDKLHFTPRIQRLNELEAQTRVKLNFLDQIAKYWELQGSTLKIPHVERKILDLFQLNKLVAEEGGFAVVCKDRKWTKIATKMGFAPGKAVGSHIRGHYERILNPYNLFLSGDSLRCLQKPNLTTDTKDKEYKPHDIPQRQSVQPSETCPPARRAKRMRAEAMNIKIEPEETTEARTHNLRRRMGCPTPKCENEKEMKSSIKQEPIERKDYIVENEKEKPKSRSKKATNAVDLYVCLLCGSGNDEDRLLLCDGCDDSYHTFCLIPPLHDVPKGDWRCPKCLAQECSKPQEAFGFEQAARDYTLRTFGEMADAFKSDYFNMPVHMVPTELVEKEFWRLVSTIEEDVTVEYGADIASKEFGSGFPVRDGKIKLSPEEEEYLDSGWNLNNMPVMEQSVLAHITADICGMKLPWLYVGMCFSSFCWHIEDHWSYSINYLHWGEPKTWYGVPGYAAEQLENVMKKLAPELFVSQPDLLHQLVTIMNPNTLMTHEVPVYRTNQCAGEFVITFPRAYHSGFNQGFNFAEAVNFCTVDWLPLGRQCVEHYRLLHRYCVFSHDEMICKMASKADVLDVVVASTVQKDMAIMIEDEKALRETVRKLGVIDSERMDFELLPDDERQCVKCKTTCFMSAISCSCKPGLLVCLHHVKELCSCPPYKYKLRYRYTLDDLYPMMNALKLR
From the text: as §1
The ability of test compounds to inhibit the activity of Jarid1B was determined in 384-well plate format under the following reaction conditions: 0.8 nM Jarid1B, 300 nM H3K4me3-biotin labeled peptide (Anaspec cat #64357), 2 µM alpha-ketoglutaric acid in assay buffer of 50 mM HEPES, pH7.3, 0.005% Brij35, 0.5 mM TCEP, 0.2 mg/ml BSA, 50 µM sodium L-ascorbate, and 2 µM ammonium iron(II) sulfate. Reaction product was determined quantitatively by TR-FRET after the addition of detection reagent Phycolink Streptavidin-allophycocyanin (Prozyme) and Europium-anti-mono-or di-methylated histone H3 lysine 4 (H3K4me1-2) antibody (PerkinElmer) in the presence of 5 mM EDTA in LANCE detection buffer (PerkinElmer) at a final concentration of 25 nM and 1 nM, respectively.
as §2, with “nM H3K4me3-biotin” for “nM H3K9me3-biotin”, “DMSO was” for “DMSO were”, “of 2.4” for “of 0.9”, “nM Jarid1B” for “nM JMJD2C”, “containing 50” for “containing 100”, “nM Europium-anti-H3K4me1-2” for “nM Europium-anti-H3K9me2”

SMILES	IC50 (JMJD2C) [µM]	IC50 (Jarid1B) [µM]
CCC(c1ccccc1)n1cnc(-c2cc(-c3nn[nH]c3C(F)(F)F)ccn2)c1 (stereo not drawn) [Example 74, 2-[1-(1-phenylpropyl)-1H-imidazol-4-yl]-4-[5-(trifluoromethyl)-1H-1,2,3-triazol-4-yl]pyridine]	> 10	0.1 to 1
FC(F)(F)COc1ccccc1Cn1cnc(-c2cc(-c3nn[nH]c3C(F)(F)F)ccn2)c1 [Example 76, 2-(1-{[2-(2,2,2-trifluoroethoxy)phenyl]methyl}-1H-imidazol-4-yl)-4-[5-(trifluoromethyl)-1H-1,2,3-triazol-4-yl]pyridine]	> 10	0.1 to 1
Fc1ccc(CCn2cnc(-c3cc(-c4nn[nH]c4C(F)(F)F)ccn3)c2)cc1 [Example 77]	> 10	≤ 0.1
Fc1cccc(CCn2cnc(-c3cc(-c4nn[nH]c4C(F)(F)F)ccn3)c2)c1 [Example 78, 2-{1-[2-(3-fluorophenyl)ethyl]-1H-imidazol-4-yl}-4-[5-(trifluoromethyl)-1H-1,2,3-triazol-4-yl]pyridine]	> 10	≤ 0.1
Fc1cccc(CCn2cnc(-c3cc(-c4nn[nH]c4C(F)(F)F)ccn3)c2)c1F [Example 79, 2-{1-[2-(2,3-difluorophenyl)ethyl]-1H-imidazol-4-yl}-4-[5-(trifluoromethyl)-1H-1,2,3-triazol-4-yl]pyridine]	> 10	≤ 0.1
Fc1cccc(Cl)c1CCn1cnc(-c2cc(-c3nn[nH]c3C(F)(F)F)ccn2)c1 [Example 80, 2-{1-[2-(2-chloro-6-fluorophenyl)ethyl]-1H-imidazol-4-yl}-4-[5-(trifluoromethyl)-1H-1,2,3-triazol-4-yl]pyridine]	> 10	0.1 to 1
Fc1cc(F)c(CCn2cnc(-c3cc(-c4nn[nH]c4C(F)(F)F)ccn3)c2)cc1F [Example 81, 4-[5-(trifluoromethyl)-1H-1,2,3-triazol-4-yl]-2-{1-[2-(2,4,5-trifluorophenyl)ethyl]-1H-imidazol-4-yl}pyridine]	> 10	≤ 0.1
Fc1cc(F)c(CCn2cnc(-c3cc(-c4nn[nH]c4C(F)(F)F)ccn3)c2)c(F)c1 [Example 82, 4-[5-(trifluoromethyl)-1H-1,2,3-triazol-4-yl]-2-{1-[2-(2,4,6-trifluorophenyl)ethyl]-1H-imidazol-4-yl}pyridine]	> 10	0.1 to 1
FC(F)(F)c1[nH]nnc1-c1ccnc(-c2cn(CC3CCc4ccccc43)cn2)c1 (stereo not drawn) [Example 83, 2-{1-[(2,3-dihydro-1H-inden-1-yl)methyl]-1H-imidazol-4-yl}-4-[5-(trifluoromethyl)-1H-1,2,3-triazol-4-yl]pyridine]	1 to 10	≤ 0.1
Fc1ccccc1CCn1cnc(-c2cc(-c3nn[nH]c3C(F)(F)F)ccn2)c1 [Example 84, 2-{1-[2-(2-fluorophenyl)ethyl]-1H-imidazol-4-yl}-4-[5-(trifluoromethyl)-1H-1,2,3-triazol-4-yl]pyridine]	> 10	≤ 0.1

More lines, now with the values ahead:

IC50 (JMJD2C) [µM]	IC50 (Jarid1B) [µM]	SMILES
1 to 10	≤ 0.1	Fc1ccc2c(c1)C(n1cnc(-c3cc(-c4nn[nH]c4C(F)(F)F)ccn3)c1)CC2 (stereo not drawn) [Example 85, 2-[1-(6-fluoro-2,3-dihydro-1H-inden-1-yl)-1H-imidazol-4-yl]-4-[5-(trifluoromethyl)-1H-1,2,3-triazol-4-yl]pyridine]
> 10	≤ 0.1	Fc1ccc(CCn2cnc(-c3cc(-c4nn[nH]c4C(F)(F)F)ccn3)c2)c(F)c1 [Example 86, 2-{1-[2-(2,4-difluorophenyl)ethyl]-1H-imidazol-4-yl}-4-[5-(trifluoromethyl)-1H-1,2,3-triazol-4-yl]pyridine]
> 10	0.1 to 1	Fc1cccc(F)c1CCn1cnc(-c2cc(-c3nn[nH]c3C(F)(F)F)ccn2)c1 [Example 87, 2-{1-[2-(2,6-difluorophenyl)ethyl]-1H-imidazol-4-yl}-4-[5-(trifluoromethyl)-1H-1,2,3-triazol-4-yl]pyridine]
> 10	≤ 0.1	Fc1ccc(F)c(CCn2cnc(-c3cc(-c4nn[nH]c4C(F)(F)F)ccn3)c2)c1 [Example 88, 2-{1-[2-(2,5-difluorophenyl)ethyl]-1H-imidazol-4-yl}-4-[5-(trifluoromethyl)-1H-1,2,3-triazol-4-yl]pyridine]
> 10	≤ 0.1	O=C(c1ccccc1)N1CCC[C@@H](n2cnc(-c3cc(-c4nn[nH]c4C(F)(F)F)ccn3)c2)C1 [Example 89, 2-{1-[(3R)-1-benzoylpiperidin-3-yl]-1H-imidazol-4-yl}-4-[5-(trifluoromethyl)-1H-1,2,3-triazol-4-yl]pyridine]
> 10	≤ 0.1	O=C(c1ccccc1)N1CCC[C@H](n2cnc(-c3cc(-c4nn[nH]c4C(F)(F)F)ccn3)c2)C1 [Example 90, 2-{1-[(3S)-1-benzoylpiperidin-3-yl]-1H-imidazol-4-yl}-4-[5-(trifluoromethyl)-1H-1,2,3-triazol-4-yl]pyridine]
> 10	0.1 to 1	Cc1ccc(CCn2cnc(-c3cc(-c4nn[nH]c4C(F)(F)F)ccn3)c2)cc1 [Example 91, 2-{1-[2-(4-methylphenyl)ethyl]-1H-imidazol-4-yl}-4-[5-(trifluoromethyl)-1H-1,2,3-triazol-4-yl]pyridine]
> 10	0.1 to 1	FC(F)(F)c1[nH]nnc1-c1ccnc(-c2cn(CCc3ccc(Cl)cc3)cn2)c1 [Example 92, 2-{1-[2-(4-chlorophenyl)ethyl]-1H-imidazol-4-yl}-4-[5-(trifluoromethyl)-1H-1,2,3-triazol-4-yl]pyridine]
